Values after ≈ are worked out from the molar mass of the structure shown. “Also recorded” adds a separate entry of the source.
How the values were obtained:
β-glucosidase = test: Inhibitory activity against glycosidase (β-glucosidase); format: biochemical, baker's yeast
Procedure: (§1) After keeping at 37° C. for 40 min, the reaction substrate, p-nitrophenyl glucoside (2.5 mM, 20 μl), was added in each well, and kept at 37° C. for 5 min. The reaction was terminated by addition of buffer, 0.1 M Na2CO3 100 μl, and the OD value was determined at 405 nm by colorimetric method. 0.067M phosphate buffer containing 10% DMSO was used instead of the compounds in negative control group. Inhibition rate=(1−OD value of experimental group/OD value of negative control group)×100%, the IC50 value was calculated by drawing.

α-glucosidase = test: Inhibitory activity against glycosidase (α-glucosidase); format: biochemical, baker's yeast
Procedure: as §1

[1] = system: Human esophageal carcinoma Ec109 cells; test: MTT activity against esophageal carcinoma Ec109 cells; format: cell-based
Procedure: Human esophageal carcinoma Ec109 cells were taken as target cells (Henan Institute of Medical Sciences), which were cultured in RPMI1640 medium (GIBCO) with 10% fetal bovine serum (TBD) at 37° C., in 5% CO2. The cells in logarithmic growth phase were inoculated in a 96-well plate, each well containing 6×10^3 cells. After 24 hours culture, the Jiyuan oridonin A (the compound obtained in example 1), derivative 1 and derivative 2 in different concentrations were added. After continuous 48 hours culture, the medical solution was removed carefully by absorption, followed by washing with RPMI 1640 medium without fetal bovine serum 3 times. 200 μL of medium with 0.2 mg/mL MTT were added in each well and incubated at 37° C. for 4 hours. The supernatant was removed and 200 μL of DMSO was added. After 10 min of shaking, the colorimetric method was used to determine the OD value of the control group and sample groups by an enzyme-labeling instrument with a detection wavelength of 570 nm, and a reference wavelength of 450 nm. The inhibition rate against cells of drugs in different concentrations was calculated and hemi-inhibitory concentration IC50 (μg/mL) was calculated based on cell inhibition curve.

Inhibitory activity against β-glucosidase (β-glucosidase; compound concentration of 1 mM): 25.0 | inhibitory activity against β-glucosidase in vitro (conclusion in words) (β-glucosidase; in vitro): certain inhibitory activity | Inhibitory activity against α-glucosidase (α-glucosidase; compound concentration of 1 mM): 26.3 | inhibitory activity against α-glucosidase in vitro (conclusion in words) (α-glucosidase; in vitro): certain inhibitory activity | IC50 ([1]; Homo sapiens, ECa-109, Ec109 cells, 48 hours culture, MTT): 4.52 µg/mL (≈ 13 µM)
SMILES: C=C1C(=O)C23C([C@@H](O)CC1[C@H]2O)[C@]12CCCC(C)(C)C1C[C@H]3OC2O (stereo partly drawn) [Jiyuan oridonin A]
cytotoxic activity against Ec109 cell (conclusion in words) ([1]; Ec109 cell): higher cytotoxic activity; also recorded: highest activity
